# Measurements as given in BigSolDB 2.1.
# Conditions: in n-octanol
solubility (mole fraction) (293.15 K),solubility (mole fraction) (298.15 K),solubility (mole fraction) (303.15 K),solubility (mole fraction) (308.15 K),solubility (mole fraction) (313.15 K),SMILES
0.000335,0.000382,0.000439,0.000495,0.000563,O=C(Cn1cnc2c(sc(=S)n2-c2ccc(F)cc2)c1=O)NCC(O)(Cn1cncn1)c1ccc(F)cc1F (stereo not given)
0.000299,0.000368,0.000444,0.000531,0.000638,Cc1ccc(-n2c(=S)sc3c(=O)n(CC(=O)NCC(O)(Cn4cncn4)c4ccc(F)cc4F)cnc32)cc1 (stereo not given)
0.00182,0.00212,0.00253,0.00297,0.00348,COc1ccccc1-n1c(=S)sc2c(=O)n(CC(=O)NCC(O)(Cn3cncn3)c3ccc(F)cc3F)cnc21 (stereo not given)
0.000548,0.000617,0.000699,0.000773,0.000861,O=C(Cn1cnc2c(sc(=S)n2-c2ccc(Cl)cc2)c1=O)NCC(O)(Cn1cncn1)c1ccc(F)cc1F (stereo not given)
